The target of one series is T1, rat mGlu2 receptor (Rattus norvegicus, UniProt P31421).
T1 construct: expressed in transfected cells; host or cells: CHO cells, stably transfected with pcD1mGR2 (pcDNA I-amp), G-418 selected; membranes used
The experiment in a line: [3H]-LY354740 binding on mGlu2 transfected CHO cell membranes.

A value given as a limit tells only on which side of the number the result lay.

T1 sequence (P31421 19-872): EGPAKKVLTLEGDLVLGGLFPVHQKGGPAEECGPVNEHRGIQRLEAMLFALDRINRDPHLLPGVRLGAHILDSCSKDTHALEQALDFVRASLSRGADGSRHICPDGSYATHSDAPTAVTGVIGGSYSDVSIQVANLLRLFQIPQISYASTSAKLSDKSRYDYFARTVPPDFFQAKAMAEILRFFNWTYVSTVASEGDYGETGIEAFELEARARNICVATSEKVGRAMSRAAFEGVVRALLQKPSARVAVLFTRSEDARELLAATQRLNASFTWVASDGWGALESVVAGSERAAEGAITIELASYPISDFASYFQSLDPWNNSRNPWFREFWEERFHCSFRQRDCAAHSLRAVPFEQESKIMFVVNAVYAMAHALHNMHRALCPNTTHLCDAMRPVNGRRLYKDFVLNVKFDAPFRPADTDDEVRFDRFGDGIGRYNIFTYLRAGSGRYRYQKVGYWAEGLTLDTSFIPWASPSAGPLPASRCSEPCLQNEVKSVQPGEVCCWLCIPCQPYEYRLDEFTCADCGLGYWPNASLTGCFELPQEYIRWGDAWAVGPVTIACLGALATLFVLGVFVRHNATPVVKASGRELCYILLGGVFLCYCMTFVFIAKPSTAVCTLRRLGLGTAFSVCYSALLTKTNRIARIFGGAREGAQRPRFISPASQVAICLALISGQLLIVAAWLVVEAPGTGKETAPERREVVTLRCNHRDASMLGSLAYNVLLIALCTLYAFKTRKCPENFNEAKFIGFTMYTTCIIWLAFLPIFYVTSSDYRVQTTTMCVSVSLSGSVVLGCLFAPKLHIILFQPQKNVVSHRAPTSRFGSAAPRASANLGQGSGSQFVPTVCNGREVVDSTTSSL

`N#Cc1cccc(C2=Nc3cc(OCC4COC(=O)O4)c(C#Cc4ccccc4)cc3NC(=O)C2)c1` (racemic) [Example 28, [RS]-3-[4-Oxo-8-(2-oxo-[1,3]dioxolan-4-ylmethoxy)-7-phenylethynyl-4,5-dihydro-3H-benzo[b][1,4]diazepin-2-yl]-benzonitrile]: the melting point is 222 °C (dec.). This molecule also displayed a Ki at rat mGlu2 receptor of 35 nM.
For the molecule `N#Cc1cccc(C2=Nc3cc(Cl)c(C#Cc4ccccc4)cc3NC(=O)C2)c1` [Example 3, 3-(8-Chloro-4-oxo-7-phenylethynyl-4,5-dihydro-3H-benzo[b][1,4]diazepin-2-yl)-benzonitrile], at rat mGlu2 receptor, the affinity, expressed as Ki, was 28 nM.
Consider `N#Cc1cccc(C2=Nc3cc(Cl)c(-c4ccccc4)cc3NC(=O)C2)c1` [Example 7, 3-(8-Chloro-4-oxo-7-phenyl-4,5-dihydro-3H-benzo[b][1,4]diazepin-2-yl)-benzonitrile], for which the melting point is 242 to 244 °C (dec.). This molecule also displayed a Ki at rat mGlu2 receptor of 120 nM.
`COC(=O)CSc1cc2c(cc1C#Cc1ccccc1)NC(=O)CC(c1cccc(C#N)c1)=N2` [Example 12, [4-(3-Cyano-phenyl)-2-oxo-8-phenylethynyl-2,3-dihydro-1H-benzo[b][1,4]diazepin-7-ylsulfanyl]-acetic acid methyl ester]: the melting point was 201 °C (dec.). Moreover, at rat mGlu2 receptor, the Ki was found to be 51 nM.
As to `N#Cc1cccc(C2=Nc3cc(CC(N)=O)c(C#Cc4ccccc4)cc3NC(=O)C2)c1` [Example 17, 2-[4-(3-Cyano-phenyl)-2-oxo-8-phenylethynyl-2,3-dihydro-1H-benzo[b][1,4]diazepin-7-yl]-acetamide], the melting point is 250 °C (dec.). Besides, the affinity on rat mGlu2 receptor, expressed as Ki, was 37 nM.
`COc1cc2c(cc1C#Cc1ccccc1)NC(=O)CC(c1cccc(C#N)c1)=N2` [Example 20, 3-(8-Methoxy-4-oxo-7-phenylethynyl-4,5-dihydro-3H-benzo[b][1,4]diazepin-2-yl)-benzonitrile] showed a melting point greater than 250 °C. Besides, affinity at rat mGlu2 receptor was put at a Ki of 46 nM.
On the same counts, the results for `N#CCc1cc2c(cc1C#Cc1ccccc1)NC(=O)CC(c1cccc(C#N)c1)=N2` [Example 23, 3-(8-Cyanomethyl-4-oxo-7-phenylethynyl-4,5-dihydro-3H-benzo[b][1,4]diazepin-2-yl)-benzonitrile] are 262 °C (dec.) and 16 nM.
As to `COCCOc1cc2c(cc1C#Cc1ccccc1)NC(=O)CC(c1cccc(I)c1)=N2` [Example 25], the melting point was 192 °C (dec.). In addition, the Ki at rat mGlu2 receptor was found to be 21 nM.
On the same counts, the results for `COCCOc1cc2c(cc1C#Cc1ccccc1)NC(=O)CC(c1cccc(-n3ccnc3)c1)=N2` [Example 27, 4-(3-Imidazol-1-yl-phenyl)-7-(2-methoxy-ethoxy)-8-phenylethynyl-1,3-dihydro-benzo[b][1,4]diazepin-2-one] are 187 to 189 °C and 12 nM.
`O=C1CC(c2cccc(-n3ccnc3)c2)=Nc2cc(CO)c(C#Cc3ccccc3)cc2N1` [Example 32, 7-Hydroxymethyl-4-(3-imidazol-1-yl-phenyl)-8-phenylethynyl-1,3-dihydro-benzo[b][1,4]diazepin-2-one] displayed a melting point of 227 °C. At rat mGlu2 receptor, the Ki is 18 nM.
On the same counts, the results for `O=C1CC(c2cccc(-n3ccnc3)c2)=Nc2cc(CO)c(C#Cc3ccc(F)cc3)cc2N1` [Example 37, 8-(4-Fluoro-phenylethynyl)-7-hydroxymethyl-4-(3-imidazol-1-yl-phenyl)-1,3-dihydro-benzo[b][1,4]diazepin-2-one] are 234 °C (dec.) and 9 nM.
`O=C1CC(c2cccc(-n3ccnc3)c2)=Nc2cc(OCCO)c(C#Cc3ccccc3)cc2N1` [Example 42, 7-(2-Hydroxy-ethoxy)-4-(3-imidazol-1-yl-phenyl)-8-phenylethynyl-1,3-dihydro-benzo[b][1,4]diazepin-2-one] registered a melting point of 224 to 227 °C. Besides, on rat mGlu2 receptor, the Ki was 32 nM.
Regarding `O=C1CC(c2cccc(-n3ccnc3)c2)=Nc2cc(N3CCC(OCCO)CC3)c(-c3ccc(F)cc3)cc2N1` [Example 45, 8-(4-Fluoro-phenyl)-7-[4-(2-hydroxy-ethoxy)-piperidin-1-yl]-4-(3-imidazol-1-yl-phenyl)-1,3-dihydro-benzo[b][1,4]diazepin-2-one], the melting point was in the range of 225 to 227 °C. The molecule further had a Ki at rat mGlu2 receptor of 100 nM.
Molecule `O=C1CC(c2cccc(-n3ccnc3)c2)=Nc2cc(O)c(-c3ccc(F)cc3)cc2N1` [Example 61, 8-(4-Fluoro-phenyl)-7-hydroxy-4-(3-imidazol-1-yl-phenyl)-1,3-dihydro-benzo[b][1,4]diazepin-2-one] yielded a melting point of 250 °C. This molecule came in with a Ki at rat mGlu2 receptor of 7 nM.
On the same counts, the results for `COc1cc2c(cc1-c1ccccc1F)NC(=O)CC(c1cccc(-n3ccnc3C)c1)=N2` [Example 68, 8-(2-Fluoro-phenyl)-7-methoxy-4-[3-(2-methyl-imidazol-1-yl)-phenyl]-1,3-dihydro-benzo[b][1,4]diazepin-2-one] are 220 to 222 °C and 138 nM.
`COc1cc2c(cc1-c1ccccc1F)NC(=O)CC(c1ccc(C#N)s1)=N2` [Example 69] registered a melting point greater than 250 °C. The molecule also gave a Ki on rat mGlu2 receptor of 168 nM.
On the same counts, the results for `COc1cc2c(cc1-c1ccccc1F)NC(=O)CC(c1ccnc(C#N)c1)=N2` [Example 71, 4-[7-(2-Fluoro-phenyl)-8-methoxy-4-oxo-4,5-dihydro-3H-benzo[b][1,4]diazepin-2-yl)-pyridine-2-carbonitrile] are 240 to 242 °C and 33 nM.
On the same counts, the results for `O=C1CC(c2cccc(-n3ccnn3)c2)=Nc2cc(O)c(-c3ccccc3F)cc2N1` [Example 75, 8-(2-Fluoro-phenyl)-7-hydroxy-4-(3-[1,2,3]triazol-1-yl-phenyl)-1,3-dihydro-benzo[b][1,4]diazepin-2-one] are greater than 250 °C and 28 nM.
As to `Cc1nccn1-c1cccc(C2=Nc3cc(O)c(-c4ccccc4F)cc3NC(=O)C2)c1` [Example 79, 8-(2-Fluoro-phenyl)-7-hydroxy-4-[3-(2-methyl-imidazol-1-yl)-phenyl]-1,3-dihydro-benzo[b][1,4]diazepin-2-one], the melting point is greater than 250 °C. Further, the Ki on rat mGlu2 receptor came to 108 nM.
In turn, `CSc1nccn1-c1cccc(C2=Nc3cc(O)c(-c4ccccc4F)cc3NC(=O)C2)c1` [Example 81, 8-(2-Fluoro-phenyl)-7-hydroxy-4-[3-(2-methylsulfanyl-imidazol-1-yl)-phenyl]-1,3-dihydro-benzo[b][1,4]diazepin-2-one] gave a melting point greater than 250 °C. In addition, on rat mGlu2 receptor, the affinity, expressed as Ki, was 21 nM.
`O=C1CC(c2cccc(-n3ccnn3)c2)=Nc2cc(O)c(C#Cc3ccc(F)cc3)cc2N1` [Example 92, 8-(4-Fluoro-phenylethynyl)-7-hydroxy-4-(3-[1,2,3]triazol-1-yl-phenyl)-1,3-dihydro-benzo[b][1,4]diazepin-2-one]: the melting point was determined as 243 °C.
For the molecule `COCCOc1cc2c(cc1C#Cc1ccccc1)NC(=O)CC(c1cccc(C(N)=O)c1)=N2` [Example 95, 3-[8-(2-Methoxy-ethoxy)-4-oxo-7-phenylethynyl-4,5-dihydro-3H-benzo[b][1,4]diazepin 2-yl]-benzamide], the melting point was 227 to 230 °C (dec.).

In general, melting point refers to the temperature of the solid-liquid transition. What is called Ki is the dissociation constant of the complex between target and ligand, obtained from inhibition or displacement. A higher Ki goes with lower affinity.

Source of the values: US6407094B1, “Glutamate receptor antagonists” (Hoffmann-la Roche Inc., priority 1999, dated 2002).
